Source: ChEMBL document CHEMBL3244023, “A structure-carcinogenicity study of 4-nitroquinoline 1-oxides using the SIMCA method of pattern recognition” (J Med Chem, 1978)

Experiments:
[1] = tested on: Mus musculus; assay: Carcinogenicity in mouse assessed as tumor development administered sc in left groin 6 times at 10-day interval; format: toxicity, organism-based; settings: in vivo
[2] = Lipophilicy, log P of the compound; format: physicochemical; settings: octanol/water

Row | Structure (SMILES) | logP [2] | Activity [1]
1 | Cc1cc([N+](=O)[O-])c2ccccc2[n+]1[O-] | 1.25 | Toxic
2 | O=[N+]([O-])c1cc[n+]([O-])c2c(F)cccc12 | 1 | 
3 | CCc1cc([N+](=O)[O-])c2ccccc2[n+]1[O-] | 1.76 | Toxic
4 | O=[N+]([O-])c1cc[n+]([O-])c2c([N+](=O)[O-])cccc12 | 0.76 | Non-toxic
5 | CC(C)(C)c1cc([N+](=O)[O-])c2ccccc2[n+]1[O-] | 1.07 | 
6 | CCc1c(C)c([N+](=O)[O-])c2ccccc2[n+]1[O-] | 2.56 | 
7 | Cc1cccc2c([N+](=O)[O-])cc[n+]([O-])c12 | 1.48 | Toxic
8 | O=[N+]([O-])c1cc[n+]([O-])c2cc(Cl)c(Cl)cc12 | 2.49 | Toxic
9 | Cc1c[n+]([O-])c2ccccc2c1[N+](=O)[O-] | 1.24 | 
10 | O=[N+]([O-])c1c(Cl)c[n+]([O-])c2ccccc12 | 1.33 | 
11 | O=[N+]([O-])c1c(F)c[n+]([O-])c2ccccc12 | 1.25 | 
12 | O=[N+]([O-])c1c(Br)c[n+]([O-])c2ccccc12 | 1.99 | Toxic
13 | COc1c[n+]([O-])c2ccccc2c1[N+](=O)[O-] | 0.43 | Non-toxic
14 | O=[N+]([O-])c1cc[n+]([O-])c2ccccc12 [4-NITROQUINOLINE-1-OXIDE] | 1.01 | Toxic

Second part, led by results:

Row | logP [2] | Structure (SMILES) | Activity [1]
15 | 0.95 | O=[N+]([O-])c1cccc2c1c([N+](=O)[O-])cc[n+]2[O-] | 
16 | 0.45 | O=[N+]([O-])c1ccc2c([N+](=O)[O-])cc[n+]([O-])c2c1 | Non-toxic
17 | 2.05 | CC(C)(C)c1ccc2c(c1)c(NO)cc[n+]2[O-] | Non-toxic
18 | 3.26 | CCCCCCc1ccc2c(c1)c([N+](=O)[O-])cc[n+]2[O-] | Non-toxic
19 | 3.35 | CCCCCCc1ccc2c(c1)c(NO)cc[n+]2[O-] | Non-toxic
20 | 2.89 | [O-][n+]1ccc(NO)c2cc(C3CCCCC3)ccc21 | Non-toxic
21 | 2.8 | O=[N+]([O-])c1cc[n+]([O-])c2ccc(C3CCCCC3)cc12 | Non-toxic
22 | 1.25 | Cc1cccc2c1c([N+](=O)[O-])cc[n+]2[O-] | Toxic
23 | 1.24 | Cc1ccc2c(c1)c([N+](=O)[O-])cc[n+]2[O-] | Toxic
24 | 1.49 | Cc1ccc2c([N+](=O)[O-])cc[n+]([O-])c2c1 | Toxic
25 | 3.11 | CCCCc1ccc2c(c1)c([N+](=O)[O-])cc[n+]2[O-] | Toxic
26 | 3.06 | CC(C)(C)c1ccc2c(c1)c([N+](=O)[O-])cc[n+]2[O-] | 
27 | 0.9 | O=[N+]([O-])c1ccc2c(c1)c([N+](=O)[O-])cc[n+]2[O-] | 
28 | 1.4 | O=[N+]([O-])c1cc[n+]([O-])c2ccc(Cl)cc12 | Toxic
29 | 1.75 | O=[N+]([O-])c1cc[n+]([O-])c2cc(Cl)ccc12 | Toxic
30 | 0.42 | O=C(O)c1ccc2c(c1)c([N+](=O)[O-])cc[n+]2[O-] | 
31 | 1.75 | O=[N+]([O-])c1cc[n+]([O-])c2cccc(Cl)c12 | Toxic
32 | -0.28 | O=[N+]([O-])c1ccc2c(c1)c(NO)cc[n+]2[O-] | Toxic
33 | 2.1 | CCCCc1ccc2c(c1)c(NO)cc[n+]2[O-] | Toxic
